Laboratory results: ChEMBL document CHEMBL5465560, “Selectivity Literature for EUbOPEN Chemogenomic Library” (2024)
Values belong to the molecule of their own block, whether it stands above or below them.

How the values were obtained:
[1] = target: Dual specificity protein kinase CLK2 (Homo sapiens, UniProt P49760); test: Selectivity interaction (KinomeScan (DiscoverX)) EUB0001049a CLK2; conditions: at 1 µM
[2] = target: Cyclin-dependent kinase 7 (Homo sapiens, UniProt P50613); test: Selectivity interaction (ActivX KiNativ screen (kinase selectivity in THP-1 cell lysates)) EUB0000639a CDK7; assay type: subcellular; conditions: lysate, at 1 µM
[3] = target: Tyrosine-protein kinase JAK2 (Homo sapiens, UniProt O60674); test: Selectivity interaction (Kinase panel (Invitrogen)) EUB0000639a JAK2; conditions: at 200 nM
[4] = target: Ribosomal protein S6 kinase alpha-5 (Homo sapiens) (UniProt O75582); test: Selectivity interaction (ActivX KiNativ screen (kinase selectivity in THP-1 cell lysates)) EUB0000639a RPS6KA5; assay type: subcellular; conditions: lysate
[5] = target: T1, Mitogen-activated protein kinase 13 (Homo sapiens) (UniProt O15264); test: Selectivity interaction (Kinase panel (literature)) EUB0001199aCl MAPK13; conditions: at 1 µM
T1 sequence (whole entry): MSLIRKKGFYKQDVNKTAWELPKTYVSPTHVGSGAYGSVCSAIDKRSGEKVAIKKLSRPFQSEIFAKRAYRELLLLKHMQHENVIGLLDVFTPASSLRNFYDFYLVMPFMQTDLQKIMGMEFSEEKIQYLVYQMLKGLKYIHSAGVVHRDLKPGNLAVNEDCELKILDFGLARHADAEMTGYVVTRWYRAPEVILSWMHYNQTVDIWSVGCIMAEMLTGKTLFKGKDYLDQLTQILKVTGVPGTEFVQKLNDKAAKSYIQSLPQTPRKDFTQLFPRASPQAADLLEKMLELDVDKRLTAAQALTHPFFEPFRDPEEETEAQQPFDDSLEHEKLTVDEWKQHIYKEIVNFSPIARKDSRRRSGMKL

[6] = target: Tyrosine-protein kinase Fyn (Homo sapiens) (UniProt P06241); test: Selectivity interaction (KinomeScan (DiscoverX)) EUB0000695a FYN; conditions: at 100 nM
[7] = target: Serine/threonine-protein kinase Nek7 (Homo sapiens) (UniProt Q8TDX7); conditions: at 10 µM
[8] = target: Tyrosine-protein kinase BTK (Homo sapiens, UniProt Q06187); test: Selectivity interaction (KinomeScan (DiscoverX)) EUB0001079a BTK; conditions: at 1 µM
[9] = target: Tyrosine-protein kinase Srms (Homo sapiens) (UniProt Q9H3Y6); test: Selectivity interaction (ProQinase) EUB0000171b SRMS
[10] = tested on: Proto-oncogene tyrosine-protein kinase receptor Ret (Homo sapiens), P07949 [V804L]; test: (§1) Selectivity interaction (KinomeScan (DiscoverX)) EUB0000618a RET; conditions: at 10 µM
[11] = tested on: Proto-oncogene tyrosine-protein kinase receptor Ret (Homo sapiens), P07949 [V804M]; test: as §1; conditions: at 10 µM
[12] = target: Proto-oncogene tyrosine-protein kinase receptor Ret (Homo sapiens, UniProt P07949); test: as §1; conditions: at 10 µM
[13] = target: T2, Dual specificity protein kinase TTK (Homo sapiens) (UniProt P33981); test: Selectivity interaction (Kinase panel (DSF assay)) EUB0001559a TTK
T2 sequence (whole entry): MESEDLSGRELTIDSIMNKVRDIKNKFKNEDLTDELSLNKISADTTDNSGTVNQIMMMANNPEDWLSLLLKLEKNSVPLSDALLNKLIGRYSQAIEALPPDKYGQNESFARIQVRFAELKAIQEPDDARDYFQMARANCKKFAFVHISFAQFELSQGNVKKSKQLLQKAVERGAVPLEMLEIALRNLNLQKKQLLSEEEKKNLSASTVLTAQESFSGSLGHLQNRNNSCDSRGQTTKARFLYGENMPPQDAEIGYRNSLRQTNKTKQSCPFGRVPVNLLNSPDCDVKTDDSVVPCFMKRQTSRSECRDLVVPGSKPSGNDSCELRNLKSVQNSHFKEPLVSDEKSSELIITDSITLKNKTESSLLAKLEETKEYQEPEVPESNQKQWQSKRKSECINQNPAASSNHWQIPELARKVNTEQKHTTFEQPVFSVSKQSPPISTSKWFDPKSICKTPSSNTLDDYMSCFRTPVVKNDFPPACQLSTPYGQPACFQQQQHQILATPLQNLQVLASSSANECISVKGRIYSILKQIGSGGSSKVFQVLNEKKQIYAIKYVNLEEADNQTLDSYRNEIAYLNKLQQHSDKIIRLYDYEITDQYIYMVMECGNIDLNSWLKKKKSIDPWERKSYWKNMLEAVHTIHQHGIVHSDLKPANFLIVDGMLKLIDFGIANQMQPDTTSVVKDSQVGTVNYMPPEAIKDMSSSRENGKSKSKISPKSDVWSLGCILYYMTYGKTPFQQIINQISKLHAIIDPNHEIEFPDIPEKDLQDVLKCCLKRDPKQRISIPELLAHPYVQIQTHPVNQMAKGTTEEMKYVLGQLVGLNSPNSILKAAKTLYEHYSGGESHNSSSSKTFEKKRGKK

[14] = target: T3, Protein kinase C iota type (Homo sapiens) (UniProt P41743); test: Selectivity interaction (KinomeScan (DiscoverX)) EUB0000607a PRKCI; conditions: at 10 µM
T3 sequence (whole entry): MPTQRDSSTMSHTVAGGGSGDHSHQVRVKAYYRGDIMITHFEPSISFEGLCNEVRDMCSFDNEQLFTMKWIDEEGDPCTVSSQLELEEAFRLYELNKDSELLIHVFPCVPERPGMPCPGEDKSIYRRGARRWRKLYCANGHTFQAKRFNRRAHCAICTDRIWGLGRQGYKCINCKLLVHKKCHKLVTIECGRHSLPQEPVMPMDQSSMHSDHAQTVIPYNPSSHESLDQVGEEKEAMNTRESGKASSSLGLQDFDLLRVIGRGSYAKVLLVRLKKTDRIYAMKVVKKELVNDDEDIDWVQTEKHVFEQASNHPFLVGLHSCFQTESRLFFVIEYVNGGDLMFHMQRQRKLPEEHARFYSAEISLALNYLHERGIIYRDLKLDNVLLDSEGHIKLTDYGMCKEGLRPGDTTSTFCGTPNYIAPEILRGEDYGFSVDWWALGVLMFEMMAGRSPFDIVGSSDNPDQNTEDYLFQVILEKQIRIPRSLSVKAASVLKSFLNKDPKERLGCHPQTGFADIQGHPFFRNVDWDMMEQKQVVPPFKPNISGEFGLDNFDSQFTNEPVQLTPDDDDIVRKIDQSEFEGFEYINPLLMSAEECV

[15] = target: Serine/threonine-protein kinase PRP4 homolog (Homo sapiens) (UniProt Q13523); test: Selectivity interaction (KinomeScan (DiscoverX)) EUB0000607a PRPF4; conditions: at 10 µM

Ribosomal protein S6 kinase alpha-5 (Homo sapiens), sequence (O75582 whole entry, looked up): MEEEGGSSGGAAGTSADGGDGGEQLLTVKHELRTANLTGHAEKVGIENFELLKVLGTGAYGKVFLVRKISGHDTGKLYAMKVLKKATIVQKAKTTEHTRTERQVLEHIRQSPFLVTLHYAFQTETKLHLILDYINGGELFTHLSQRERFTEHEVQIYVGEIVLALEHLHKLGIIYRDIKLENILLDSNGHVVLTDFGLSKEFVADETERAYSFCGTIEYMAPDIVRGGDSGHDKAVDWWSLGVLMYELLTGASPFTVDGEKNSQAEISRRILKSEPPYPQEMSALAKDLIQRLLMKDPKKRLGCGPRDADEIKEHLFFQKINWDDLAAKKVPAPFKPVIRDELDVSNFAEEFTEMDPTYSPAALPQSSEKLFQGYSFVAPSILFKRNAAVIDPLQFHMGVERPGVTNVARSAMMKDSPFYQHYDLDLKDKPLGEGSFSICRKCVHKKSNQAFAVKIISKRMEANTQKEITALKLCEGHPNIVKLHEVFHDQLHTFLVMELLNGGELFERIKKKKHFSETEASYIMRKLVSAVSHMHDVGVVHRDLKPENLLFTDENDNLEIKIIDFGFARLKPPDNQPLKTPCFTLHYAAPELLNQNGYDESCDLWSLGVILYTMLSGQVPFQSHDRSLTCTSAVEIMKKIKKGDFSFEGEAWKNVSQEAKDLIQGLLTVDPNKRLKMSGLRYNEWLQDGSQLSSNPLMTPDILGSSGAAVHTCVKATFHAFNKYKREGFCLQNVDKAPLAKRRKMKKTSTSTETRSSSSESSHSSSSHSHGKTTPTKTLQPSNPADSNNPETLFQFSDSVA
Tyrosine-protein kinase Srms (Homo sapiens), sequence (Q9H3Y6 whole entry): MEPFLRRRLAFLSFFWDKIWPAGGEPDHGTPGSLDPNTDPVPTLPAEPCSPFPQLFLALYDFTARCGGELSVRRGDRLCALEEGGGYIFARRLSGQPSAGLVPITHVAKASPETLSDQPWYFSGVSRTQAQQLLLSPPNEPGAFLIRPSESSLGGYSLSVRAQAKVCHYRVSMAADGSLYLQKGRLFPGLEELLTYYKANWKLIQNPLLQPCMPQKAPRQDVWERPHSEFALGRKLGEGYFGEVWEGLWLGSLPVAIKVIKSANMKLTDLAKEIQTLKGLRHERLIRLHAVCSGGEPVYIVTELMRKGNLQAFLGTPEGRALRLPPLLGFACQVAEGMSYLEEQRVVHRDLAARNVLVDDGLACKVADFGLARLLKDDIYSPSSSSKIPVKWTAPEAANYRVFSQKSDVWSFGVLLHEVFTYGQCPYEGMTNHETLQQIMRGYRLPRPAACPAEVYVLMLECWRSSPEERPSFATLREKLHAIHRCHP
Tyrosine-protein kinase JAK2, sequence (O60674 whole entry): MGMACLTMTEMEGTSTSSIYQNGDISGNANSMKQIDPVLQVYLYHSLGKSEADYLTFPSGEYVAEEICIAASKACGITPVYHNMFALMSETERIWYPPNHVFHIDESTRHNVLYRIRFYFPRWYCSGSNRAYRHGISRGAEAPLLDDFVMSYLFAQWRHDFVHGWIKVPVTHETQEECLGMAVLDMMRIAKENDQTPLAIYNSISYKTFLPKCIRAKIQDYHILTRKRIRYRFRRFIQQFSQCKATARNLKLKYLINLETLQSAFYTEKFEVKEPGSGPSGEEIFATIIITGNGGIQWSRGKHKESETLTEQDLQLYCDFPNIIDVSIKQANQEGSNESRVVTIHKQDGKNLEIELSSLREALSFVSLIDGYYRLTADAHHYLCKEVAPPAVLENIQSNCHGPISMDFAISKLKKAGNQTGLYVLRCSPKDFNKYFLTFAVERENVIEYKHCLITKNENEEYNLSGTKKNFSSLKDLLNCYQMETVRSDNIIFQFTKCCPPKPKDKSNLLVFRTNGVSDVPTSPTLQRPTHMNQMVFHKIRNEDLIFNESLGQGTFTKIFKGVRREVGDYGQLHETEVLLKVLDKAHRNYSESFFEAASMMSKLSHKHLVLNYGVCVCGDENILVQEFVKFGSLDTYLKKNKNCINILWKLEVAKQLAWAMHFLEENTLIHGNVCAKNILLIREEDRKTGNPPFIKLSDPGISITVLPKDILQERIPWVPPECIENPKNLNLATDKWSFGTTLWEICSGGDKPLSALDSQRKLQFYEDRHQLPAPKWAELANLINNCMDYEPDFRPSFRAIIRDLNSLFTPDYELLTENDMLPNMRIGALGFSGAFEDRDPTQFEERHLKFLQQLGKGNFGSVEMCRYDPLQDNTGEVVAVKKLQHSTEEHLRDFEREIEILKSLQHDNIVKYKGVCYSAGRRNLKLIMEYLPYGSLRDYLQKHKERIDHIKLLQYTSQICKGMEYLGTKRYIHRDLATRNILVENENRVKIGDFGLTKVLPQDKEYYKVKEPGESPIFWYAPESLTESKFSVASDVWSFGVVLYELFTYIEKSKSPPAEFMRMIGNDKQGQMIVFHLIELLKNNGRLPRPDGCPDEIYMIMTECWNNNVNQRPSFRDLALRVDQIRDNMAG
Serine/threonine-protein kinase Nek7 (Homo sapiens), sequence (Q8TDX7 whole entry, looked up): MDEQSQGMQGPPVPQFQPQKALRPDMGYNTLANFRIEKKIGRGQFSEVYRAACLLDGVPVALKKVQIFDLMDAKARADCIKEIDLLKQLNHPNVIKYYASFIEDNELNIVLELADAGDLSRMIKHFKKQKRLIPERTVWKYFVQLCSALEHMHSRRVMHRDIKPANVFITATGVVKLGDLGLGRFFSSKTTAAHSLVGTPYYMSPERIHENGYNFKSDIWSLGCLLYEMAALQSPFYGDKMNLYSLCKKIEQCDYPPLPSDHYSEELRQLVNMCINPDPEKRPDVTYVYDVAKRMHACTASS
Proto-oncogene tyrosine-protein kinase receptor Ret (Homo sapiens), P07949 [V804M], sequence (P07949 whole entry V804M): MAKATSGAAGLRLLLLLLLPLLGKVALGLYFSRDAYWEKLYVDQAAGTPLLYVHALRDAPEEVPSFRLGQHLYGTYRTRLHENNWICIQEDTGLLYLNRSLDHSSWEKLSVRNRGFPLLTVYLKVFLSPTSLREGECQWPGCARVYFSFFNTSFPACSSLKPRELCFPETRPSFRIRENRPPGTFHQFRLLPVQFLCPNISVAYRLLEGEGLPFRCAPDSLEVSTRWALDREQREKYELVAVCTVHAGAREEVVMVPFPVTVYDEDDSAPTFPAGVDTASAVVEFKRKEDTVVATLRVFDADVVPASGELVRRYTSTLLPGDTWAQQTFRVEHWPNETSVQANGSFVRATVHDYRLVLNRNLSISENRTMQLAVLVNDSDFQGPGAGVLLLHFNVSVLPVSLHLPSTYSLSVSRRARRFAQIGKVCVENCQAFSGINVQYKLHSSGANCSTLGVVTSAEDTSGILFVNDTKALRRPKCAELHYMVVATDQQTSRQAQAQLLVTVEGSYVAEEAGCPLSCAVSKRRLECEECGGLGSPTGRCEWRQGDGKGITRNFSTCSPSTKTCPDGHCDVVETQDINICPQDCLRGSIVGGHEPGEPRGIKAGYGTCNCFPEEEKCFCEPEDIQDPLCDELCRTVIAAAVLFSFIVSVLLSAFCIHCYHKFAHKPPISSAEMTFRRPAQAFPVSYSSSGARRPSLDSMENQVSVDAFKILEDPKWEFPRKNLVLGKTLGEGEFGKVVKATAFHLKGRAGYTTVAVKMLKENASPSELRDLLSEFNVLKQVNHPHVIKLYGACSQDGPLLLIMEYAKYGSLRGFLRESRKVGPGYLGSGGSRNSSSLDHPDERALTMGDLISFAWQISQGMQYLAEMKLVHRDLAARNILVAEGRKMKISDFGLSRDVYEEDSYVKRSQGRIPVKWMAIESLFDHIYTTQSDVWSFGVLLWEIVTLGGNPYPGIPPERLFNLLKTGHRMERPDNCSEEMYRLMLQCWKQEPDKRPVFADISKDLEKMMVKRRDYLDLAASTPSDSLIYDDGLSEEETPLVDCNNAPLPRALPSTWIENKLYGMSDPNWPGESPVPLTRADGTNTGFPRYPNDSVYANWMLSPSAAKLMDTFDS
Tyrosine-protein kinase BTK, sequence (Q06187 whole entry): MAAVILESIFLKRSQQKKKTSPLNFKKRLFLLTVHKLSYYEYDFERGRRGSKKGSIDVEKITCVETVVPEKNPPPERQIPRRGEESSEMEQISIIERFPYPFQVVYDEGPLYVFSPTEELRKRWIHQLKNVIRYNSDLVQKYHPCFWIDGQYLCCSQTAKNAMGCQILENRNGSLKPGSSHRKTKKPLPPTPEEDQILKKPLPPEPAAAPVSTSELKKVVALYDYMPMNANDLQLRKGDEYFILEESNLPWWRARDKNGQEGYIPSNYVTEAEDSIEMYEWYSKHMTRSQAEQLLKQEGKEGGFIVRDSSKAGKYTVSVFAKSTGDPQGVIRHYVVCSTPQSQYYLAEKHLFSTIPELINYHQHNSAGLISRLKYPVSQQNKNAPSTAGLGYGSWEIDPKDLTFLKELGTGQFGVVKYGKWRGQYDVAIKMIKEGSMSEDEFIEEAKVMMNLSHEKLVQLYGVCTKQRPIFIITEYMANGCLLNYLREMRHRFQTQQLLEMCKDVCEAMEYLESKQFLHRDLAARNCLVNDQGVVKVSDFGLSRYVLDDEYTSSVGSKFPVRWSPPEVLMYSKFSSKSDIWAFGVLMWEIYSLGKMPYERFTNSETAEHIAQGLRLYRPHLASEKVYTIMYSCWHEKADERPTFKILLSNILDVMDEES
Cyclin-dependent kinase 7, sequence (P50613 whole entry): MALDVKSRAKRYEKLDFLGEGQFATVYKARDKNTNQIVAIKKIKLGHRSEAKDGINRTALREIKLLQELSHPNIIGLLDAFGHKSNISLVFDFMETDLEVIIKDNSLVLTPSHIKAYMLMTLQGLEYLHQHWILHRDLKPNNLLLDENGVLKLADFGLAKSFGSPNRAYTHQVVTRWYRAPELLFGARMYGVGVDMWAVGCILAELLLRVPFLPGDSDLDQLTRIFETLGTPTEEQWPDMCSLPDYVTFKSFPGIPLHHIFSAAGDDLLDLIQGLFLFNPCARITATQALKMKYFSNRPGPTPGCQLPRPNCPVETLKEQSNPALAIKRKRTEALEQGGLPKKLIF
Proto-oncogene tyrosine-protein kinase receptor Ret, sequence (P07949 whole entry): as the sequence (P07949 whole entry V804M) above, with M804V counted along it
Proto-oncogene tyrosine-protein kinase receptor Ret (Homo sapiens), P07949 [V804L], sequence (P07949 whole entry V804L): as the sequence (P07949 whole entry V804M) above, with M804L counted along it

SMILES: COc1cc(Nc2nc(C)cc(-c3cnn4nc(OC)ccc34)n2)cc(C(F)(F)F)c1
- % of control [1]: 96%

SMILES: Cc1cc(F)c(C(=O)Nc2cccc(-c3nncn3C(C)C)n2)cc1-n1cnc(C2CC2)c1
- % of control [6]: 99%

SMILES: Nc1cnc(N2CCc3cc(S(=O)(=O)Nc4c(F)cc(Cl)cc4F)cc(N4CCCC4=O)c32)nc1 [TP-020n]
- % of control [8]: 100%

SMILES: O[C@H]1CC[C@H](Nc2ncc3nc(Nc4c(F)cc(F)cc4F)n([C@H]4CCOC4)c3n2)CC1
- % of control [10]: 100%
- % of control [11]: 96%
- % of control [12]: 100%

SMILES: CNC(=O)Nc1ccc(-c2nc(N3CC4CCC(C3)O4)c3cnn(C4CCC5(CC4)OCCO5)c3n2)cc1
- % of control [14]: 67%
- % of control [15]: 70%

Results, then the molecule that gave them:

- % of inhibition [2]: 10.8%
- % of inhibition [3]: 17.6%
- % of inhibition ([4]; at 0.01 µM): 2.2%
- % of inhibition ([4]; at 0.04 µM): -1%
- % of inhibition ([4]; at 0.2 µM): -6.1%
- % of inhibition ([4]; at 1 µM): -9.7%
- % of inhibition ([4]; at 5 µM): -27.5%
SMILES: CC[C@@H]1[C@H](F)C(=O)N[C@@H]1COc1nccc2cc(C(N)=O)c(OC)cc12 [ZIMLOVISERTIB]

- % of inhibition [5]: 10%
SMILES: CN1Cc2nccc(-c3cn(C)nc3-c3ccc(F)cc3)c2C1=O

- % of control [7]: 100%
SMILES: CCN(CC)CCCCNc1ncc2cc(-c3cc(OC)cc(OC)c3)c(NC(=O)NC(C)(C)C)nc2n1

- % of control ([9]; at 1 µM): 95%
- % of control ([9]; at 5 µM): 92%
SMILES: C=CC(=O)Nc1cccc(C(=O)Nc2ccc(Nc3cc(-c4[nH]c(SC)nc4C)ccn3)cc2)c1

- dTM [13]: -0.3 K
SMILES: CN(C(=O)c1cnn2cccnc12)c1cc2c(cc1N1CCOCC1)C(=O)N(C[C@@H](F)C(C)(C)O)C2
